Data set [1] concerns TA3Ha cells. Put plainly: Synthetic Tn-KLH/Ribi tumor vaccine, TA3Ha challenge i.p. The data set is classed as in vivo, mouse. Particulars: control groups; TA3Ha i.p. day 0, CP day 1.
Description: Mice were preimmunized at day −7 with 50 μg of synthetic Tn/Ribi, s.c. and were challenged with TA3Ha cells, i.p. at day 0.
Mice were immunized with 30 μg of monomeric Tn-KLH/Ribi or dimeric Tn-KLH/Ribi on days −7, 2, 5, 12 and 19.
Data set [2] deals with TA3Ha cells. Put plainly: Tumor growth suppression by vaccination with Tn antigen (A-OSM or A-BSM), Ribi adjuvant and cyclophosphamide. The data set is classed as in vivo, mouse. Particulars: CP only; 700 TA3Ha cells i.p. Here is the method: Tumor growth suppression was tested using A-OSM or A-BSM with Ribi adjuvant, which is essentially composed of trehalose dimycolate and monophosphoryl Lipid A, the effective component of mycobacteria known to stimulate immune response of T as well as B cells (Ribi et al., Clin. Immunol. Newsletter 6:33-36, 1985). A-OSM and A-BSM were produced by treatment with neuraminidase as described above. […] For example, 100 μg of A-OSM or A-BSM were mixed with 500 μg of complete Ribi adjuvant and injected subcutaneously at day −7 (i.e., 7 days before tumor cell inoculation). On day 0, 700 TA3Ha cells were injected intraperitoneally. On day 1, CP (75 mg/kg) was injected intraperitoneally. On days 2, 5, 12, and 19, 100 μg antigen/500 μg Ribi adjuvant complex was injected subcutaneously. Another experimental group was injected with CP-Ribi on days 2, 5, 12, and 19, respectively.

In the next data set the test system is antibody to Le^y. Particulars: cited from earlier work.
Another data set has as its system MHC Class I Kb / Db. To be noted: peptides binding MHC Class I Kb; cited from earlier work.
For data set [3] the following is noted: cited from earlier work.
In data set [4] the test system is B16 melanoma cells of clones F-1 or F-10. Put plainly: Active immunization with GM3 lactone, B16 melanoma development. In kind it is in vivo. Particulars: immunized BALB/c mice. Here is the method:
Ten BALB/c mice were immunized with native GM3 or GM3 lactone coated on acid-treated Salmonella minnesota. Immunization was carried out by intravenous injection of 200 μl of the GM3 or GM3 lactone preparation once per week for 4 weeks. Subsequently, 1.0×10^5 B16 melanoma cells of clones F-1 or F-10, were subcutaneously injected into the back of the mice and tumor growth was observed after 20 days. As controls, other glycolipids, such as paragloboside coated on acid-treated Salmonella minnesota, and Salmonella minnesota alone, were used in the same amounts as discussed above.
In the table, the numbers indicate the number of animal which died over the total number of animals immunized.

The test system of data set [5] is B16 melanoma and mouse colonic carcinoma Colon 26. Particulars: mice bearing various tumors; cited from earlier work.
The subject of another data set is V alpha 14 TCR. To be noted: cited from earlier work.
A further data set has as its system V alpha 14 NKT cells. Particulars: cited from earlier work.

Where two headings read alike, the source gives them in different places. Where no end group is shown, it is not given here.

As for `O=P1(N(CCCl)CCCl)NCCCO1` (stereo not shown) [CP, Cyclophosphamide], in the data set with TA3Ha cells [1], the “survival of tumor challenge” value is reported as “did not survive tumor challenge”. In addition, in the data set with TA3Ha cells [2], the “most animals had died by” value lay in the range of 20 to 30 days and the tumor growth suppression result is “some tumor growth suppression”.

As for “APWLYGPA [peptide selected from phage display library with antibody to Le^y]”, in the data set on antibody to Le^y, the “binding of the antibody to Le^y” value was “inhibited binding”. Consider “Di-Gal (Galα1-4Gal) oligosaccharide linked to N or P of FAPGNYPAL: di-Gal linked to MHC Class I Kb binding peptide FAPGNYPAL (also: di-Gal (Galα1-4Gal) linked to N or P)”, for which the “cytotoxic T cell response to the oligosaccharide residue” value with MHC Class I Kb / Db is on record as “elicited a cytotoxic T cell response”.

In the case of GM3 lactone, the “stability of the structure” value in data set [3] (acidic to neutral pH) is “relatively stable”; in [3] (alkaline pH), “unstable”. The tumor growth reduced entry in data set [4] was “reduced”. For the molecule “Di-Gal (Galα1-4Gal) oligosaccharide linked to V or Q of RGYVYQGL: di-Gal linked to MHC Class I Kb binding peptide RGYVYQGL (also: di-Gal (Galα1-4Gal) linked to V or Q)”, in the data set with MHC Class I Kb / Db, the “cytotoxic T cell response to the oligosaccharide residue” value is “elicited a cytotoxic T cell response”.

In the case of `CCCCCCCCCCCCCCCCCCCCCCCCCC(=O)N[C@@H](CO[C@H]1O[C@H](CO)[C@H](O)[C@H](O)[C@H]1O)[C@H](O)[C@H](O)CCCCCCCCCCCCCC` [alpha-GalCer], the “tumor growth and metastasis” value in data set [5] was “abrogated tumor growth and metastasis”. The “binding to V alpha 14 TCR” value in the data set with V alpha 14 TCR is “bind V alpha 14 TCR”. Besides, in the data set with V alpha 14 NKT cells, the “proliferation of V alpha 14 NKT cells” value is “stimulate proliferation”. For the molecule GM3, in [4], the tumor growth reduced entry was “not”.
